Test results taken from PubChem BioAssay AID248 (DTP/NCI, 2004).
Where “and” joins values, the source holds several entries; their conditions need not be identical. Equal values may be shown once. Toxic doses and inconclusive results are not listed. No stated cut-off is given here; in the data, active means T/C of 150% or more; inactive means T/C below 125%.

Tested on: L1210 leukemia ip in BDF1 mice, survival T/C
Experiment: NCI In Vivo Anticancer Drug Screen. Data for tumor model L1210 Leukemia (intraperitoneal) in B6D2F1 (BDF1) mice
Conditions: endpoint: mean survival time, higher = longer survival
Method in brief: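 Transplanted-tumor mice were given test agent; controls received vehicle only. Survival readings from the two groups were divided (treated over control).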

[1] = dose: 6.25 mg/kg/injection, schedule: Q01DX009 (ip), vehicle: saline with Tween-80
[2] = dose: 12.5 mg/kg/injection, schedule: Q01DX009 (ip), vehicle: saline with Tween-80
[3] = dose: 100.0 mg/kg/injection, schedule: Q04DX002 (ip), vehicle: saline with Tween-80
[4] = dose: 50.0 mg/kg/injection, schedule: Q01DX009 (ip), vehicle: saline with Tween-80
[5] = dose: 100.0 mg/kg/injection, schedule: Q01DX009 (ip), vehicle: saline with Tween-80
[6] = dose: 200.0 mg/kg/injection, schedule: Q01DX009 (ip), vehicle: saline with Tween-80
[7] = dose: 100.0 mg/kg/injection, schedule: Q01DX001 (ip), vehicle: Klucel (hydroxypropylcellulose) (HPC)
[8] = dose: 200.0 mg/kg/injection, schedule: Q01DX001 (ip), vehicle: Klucel (hydroxypropylcellulose) (HPC)
[9] = dose: 400.0 mg/kg/injection, schedule: Q01DX001 (ip), vehicle: Klucel (hydroxypropylcellulose) (HPC)
[10] = dose: 50.0 mg/kg/injection, schedule: Q01DX001 (ip), vehicle: carboxymethylcellulose (CMC)
[11] = dose: 100.0 mg/kg/injection, schedule: Q01DX001 (ip), vehicle: carboxymethylcellulose (CMC)
[12] = dose: 200.0 mg/kg/injection, schedule: Q01DX001 (ip), vehicle: carboxymethylcellulose (CMC)
[13] = dose: 400.0 mg/kg/injection, schedule: Q01DX001 (ip), vehicle: carboxymethylcellulose (CMC)
[14] = dose: 100.0 mg/kg/injection, schedule: Q04DX003 (ip), vehicle: Klucel (hydroxypropylcellulose) (HPC)
[15] = dose: 200.0 mg/kg/injection, schedule: Q04DX003 (ip), vehicle: Klucel (hydroxypropylcellulose) (HPC)
[16] = dose: 400.0 mg/kg/injection, schedule: Q04DX003 (ip), vehicle: Klucel (hydroxypropylcellulose) (HPC)

Measured: T/C

O=S(=O)(ON=C(c1ccc(Cl)cc1)c1ccc(Cl)cc1)c1ccccc1
inactive: dose: 100.0 mg/kg/injection, schedule: Q01DX009 (ip), vehicle: carboxymethylcellulose (CMC) 98 % of control | dose: 100.0 mg/kg/injection, schedule: Q04DX002 (ip), vehicle: carboxymethylcellulose (CMC) 101 % of control and 92 % of control | dose: 100.0 mg/kg/injection, schedule: Q04DX003 (ip), vehicle: carboxymethylcellulose (CMC) 106 % of control | dose: 200.0 mg/kg/injection, schedule: Q01DX009 (ip), vehicle: carboxymethylcellulose (CMC) 95 % of control and 92 % of control | dose: 200.0 mg/kg/injection, schedule: Q04DX002 (ip), vehicle: carboxymethylcellulose (CMC) 102 % of control and 111 % of control | dose: 200.0 mg/kg/injection, schedule: Q04DX003 (ip), vehicle: carboxymethylcellulose (CMC) 93 % of control | dose: 400.0 mg/kg/injection, schedule: Q01DX009 (ip), vehicle: carboxymethylcellulose (CMC) 95 % of control and 101 % of control | dose: 400.0 mg/kg/injection, schedule: Q04DX002 (ip), vehicle: carboxymethylcellulose (CMC) 95 % of control and 101 % of control | dose: 400.0 mg/kg/injection, schedule: Q04DX003 (ip), vehicle: carboxymethylcellulose (CMC) 93 % of control

O=c1oc(Cl)cc2oc(=O)n(-c3ccccc3)c(=O)c12
inactive: [1] 106 % of control | [2] 98 % of control | dose: 25.0 mg/kg/injection, schedule: Q01DX009 (ip), vehicle: saline with Tween-80 93 % of control and 109 % of control | dose: 25.0 mg/kg/injection, schedule: Q04DX002 (ip), vehicle: saline with Tween-80 98 % of control | dose: 50.0 mg/kg/injection, schedule: Q04DX002 (ip), vehicle: saline with Tween-80 102 % of control | [3] 96 % of control and 98 % of control

C=CCC1CC2CC(C1C)C2(C)C (stereo unspecified)
inactive: [4] 93 % of control | [5] 101 % of control | [6] 93 % of control

[CH3][Sn]([c]1ccccc1)([c]1ccccc1)[c]1ccccc1
inactive: [3] 91 % of control | dose: 200.0 mg/kg/injection, schedule: Q04DX002 (ip), vehicle: saline with Tween-80 95 % of control | dose: 400.0 mg/kg/injection, schedule: Q04DX002 (ip), vehicle: saline with Tween-80 103 % of control

O=C(O)C(CSCc1ccccc1)NSc1ccccc1[N+](=O)[O-] (stereo unspecified)
inactive: [7] 105 % of control | dose: 100.0 mg/kg/injection, schedule: Q04DX003 (ip), vehicle: saline 97 % of control | [8] 105 % of control | dose: 200.0 mg/kg/injection, schedule: Q04DX003 (ip), vehicle: saline 95 % of control | [9] 101 % of control | dose: 400.0 mg/kg/injection, schedule: Q04DX003 (ip), vehicle: saline 106 % of control

CCCCCCCCCCCCCCCCCBr
inactive: [10] 110 % of control | [11] 95 % of control | [12] 93 % of control | [13] 95 % of control

CCCCCCCCOc1ccc(N(C)C(N)=S)cc1
inactive: [14] 97 % of control | [15] 101 % of control | [16] 106 % of control

COC(=O)C1CN=NC1C(=O)OC (stereo unspecified)
inactive: dose: 100.0 mg/kg/injection, schedule: Q04DX003 (ip), vehicle: acetone 98 % of control | dose: 200.0 mg/kg/injection, schedule: Q04DX003 (ip), vehicle: acetone 96 % of control | dose: 400.0 mg/kg/injection, schedule: Q04DX003 (ip), vehicle: acetone 101 % of control

O=C(COc1ccccc1)Oc1c(Cl)c(Cl)c(Cl)c(Cl)c1Cl
inactive: [7] 96 % of control | [14] 103 % of control | [8] 92 % of control | [15] 103 % of control | [9] 98 % of control | [16] 95 % of control

C[P+](C)(c1ccccc1)c1ccccc1
inactive: dose: 3.12 mg/kg/injection, schedule: Q01DX009 (ip), vehicle: saline with Tween-80 108 % of control | [1] 101 % of control | [2] 97 % of control | dose: 12.5 mg/kg/injection, schedule: Q04DX003 (ip), vehicle: saline with Tween-80 102 % of control

CCCCC(C)(CCN)CCCC
inactive: dose: 4.0 mg/kg/injection, schedule: Q01DX015 (ip), vehicle: carboxymethylcellulose (CMC) 88 % of control | dose: 8.0 mg/kg/injection, schedule: Q01DX015 (ip), vehicle: carboxymethylcellulose (CMC) 96 % of control | dose: 16.0 mg/kg/injection, schedule: Q01DX015 (ip), vehicle: carboxymethylcellulose (CMC) 107 % of control | dose: 32.0 mg/kg/injection, schedule: Q01DX015 (ip), vehicle: carboxymethylcellulose (CMC) 90 % of control | dose: 48.0 mg/kg/injection, schedule: Q01DX015 (ip), vehicle: carboxymethylcellulose (CMC) 100 % of control | [10] 111 % of control | dose: 64.0 mg/kg/injection, schedule: Q01DX015 (ip), vehicle: carboxymethylcellulose (CMC) 93 % of control | [11] 96 % of control | dose: 100.0 mg/kg/injection, schedule: Q01DX015 (ip), vehicle: carboxymethylcellulose (CMC) 98 % of control | dose: 150.0 mg/kg/injection, schedule: Q01DX015 (ip), vehicle: carboxymethylcellulose (CMC) 100 % of control | [12] 102 % of control | [13] 113 % of control

CCOC(=O)C1Nc2ccc3ccccc3c2NC1=O (stereo unspecified)
inactive: dose: 50.0 mg/kg/injection, schedule: Q04DX002 (ip), vehicle: Klucel (hydroxypropylcellulose) (HPC) 93 % of control | dose: 100.0 mg/kg/injection, schedule: Q04DX002 (ip), vehicle: Klucel (hydroxypropylcellulose) (HPC) 97 % of control | dose: 200.0 mg/kg/injection, schedule: Q04DX002 (ip), vehicle: Klucel (hydroxypropylcellulose) (HPC) 90 % of control

COc1ccc(OC)c(NC(=O)Nc2ccc(Cl)cc2[N+](=O)[O-])c1
inactive: [5] 91 % of control | [6] 97 % of control | dose: 400.0 mg/kg/injection, schedule: Q01DX009 (ip), vehicle: saline with Tween-80 89 % of control

CCOC(=O)CNCC(O)C(Cl)(Cl)Cl (stereo unspecified)
inactive: [5] 92 % of control | [6] 86 % of control

O=C1Nc2ccccc2/C1=C/C(=O)c1c[nH]c2ccccc12
inactive: [4] 101 % of control | [5] 101 % of control | [6] 96 % of control

Cc1nc2cc(Cc3ccccc3)ccc2o1
inactive: dose: 100.0 mg/kg/injection, schedule: Q04DX003 (ip), vehicle: saline sonified 107 % of control | dose: 200.0 mg/kg/injection, schedule: Q04DX003 (ip), vehicle: saline sonified 105 % of control | dose: 400.0 mg/kg/injection, schedule: Q04DX003 (ip), vehicle: saline sonified 107 % of control

CCC(C)C(C)CO (stereo unspecified)
inactive: dose: 50.0 mg/kg/injection, schedule: Q01DX001 (ip), vehicle: saline 108 % of control | dose: 100.0 mg/kg/injection, schedule: Q01DX001 (ip), vehicle: saline 100 % of control | dose: 200.0 mg/kg/injection, schedule: Q01DX001 (ip), vehicle: saline 88 % of control

Cc1cc(C)c2c(c1)NP(=S)(c1ccccc1)N2 (stereo unspecified)
inactive: dose: 75.0 mg/kg/injection, schedule: Q04DX002 (ip), vehicle: gum acacia 93 % of control | dose: 150.0 mg/kg/injection, schedule: Q04DX002 (ip), vehicle: gum acacia 93 % of control | dose: 300.0 mg/kg/injection, schedule: Q04DX002 (ip), vehicle: gum acacia 93 % of control

O=C(O)CCC(c1ccccc1)(c1ccccc1)c1ccccc1
inactive: [11] 95 % of control | [12] 95 % of control | [13] 101 % of control

COc1ccc(/C=N/NC(=O)CNC(=O)Nc2cccc(Cl)c2)cc1
inactive: [4] 87 % of control

CCCCCCCCC(=O)CCCC
inactive: dose: 100.0 mg/kg/injection, schedule: Q01DX009 (ip), vehicle: saline 103 % of control | dose: 200.0 mg/kg/injection, schedule: Q01DX009 (ip), vehicle: saline 100 % of control | dose: 400.0 mg/kg/injection, schedule: Q01DX009 (ip), vehicle: saline 100 % of control
